This note sets out measurements from patent publication US20180133343A1, “NANOPARTICLE CONJUGATES AND USES THEREOF” (Massachusetts Institute of Technology, priority 2016, published 2018).

This experiment deals with CD8+ T cells. As to the kind of experiment: Drug concentration in CD8+ T cells after in vitro incubation. In kind it is cell-based. The settings on record: free drug at 10-fold higher dose, compared to drug-loaded nanoparticles.

On to `Cc1cccc(-c2[nH]c(C(C)(C)C)nc2-c2ccc3nccnc3c2)n1` [SB525334], for which the drug/cell ratio entry is reported as “lower drug/cell ratio”.
